The target of the assay is human P2X7 (Homo sapiens (Human), UniProt Q99572). Nature of the assay: Human P2X7 functional assay (Ca2+ influx, Fluo-4, FDSS). Format: cell-based. The following applies: antagonistic activity with respect to the human P2X7 receptor; BzATP final concentration 80 microM. The method, then: The ability of the 5,6,7,8-tetrahydroquinoline and 6,7-dihydro-5H-cyclopenta[b]pyridine derivatives of the formula (I) to inhibit the P2X7 channel was measured by Ca^2+ influx assay and electrophysiology assay described below.
Sequence of human P2X7 (Q99572 whole entry): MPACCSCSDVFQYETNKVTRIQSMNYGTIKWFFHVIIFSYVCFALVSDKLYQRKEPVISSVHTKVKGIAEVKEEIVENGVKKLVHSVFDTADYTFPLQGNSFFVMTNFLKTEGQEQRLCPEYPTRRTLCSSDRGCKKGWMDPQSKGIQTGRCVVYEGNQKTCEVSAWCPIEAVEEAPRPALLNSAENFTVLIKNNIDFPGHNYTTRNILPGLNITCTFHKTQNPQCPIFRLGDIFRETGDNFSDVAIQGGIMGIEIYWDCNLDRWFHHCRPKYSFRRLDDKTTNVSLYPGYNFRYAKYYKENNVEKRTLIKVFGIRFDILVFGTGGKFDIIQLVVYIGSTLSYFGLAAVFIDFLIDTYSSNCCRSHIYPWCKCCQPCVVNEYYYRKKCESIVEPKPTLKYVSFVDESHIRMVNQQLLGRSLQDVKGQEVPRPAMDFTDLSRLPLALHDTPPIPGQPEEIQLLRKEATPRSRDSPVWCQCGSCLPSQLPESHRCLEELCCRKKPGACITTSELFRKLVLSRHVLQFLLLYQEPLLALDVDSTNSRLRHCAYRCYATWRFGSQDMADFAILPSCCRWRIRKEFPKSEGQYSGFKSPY
Human P2X7 Functional Assay
The functional activity of compounds was determined by measuring changes in intracellular calcium concentration using a Ca^2+-sensitive fluorescent dye, Fluo-4 (Molecular Probes). The changes in fluorescent signal were monitored by the cell imaging technology by Hamamatsu Photonics's Functional Drug Screening System (FDSS). Increases in intracellular Ca^2+ concentration were readily detected upon activation with BzATP.
HEK293 cells stably expressing human P2X7 (GenBank accession number BC011913) carrying a C-terminal FLAG tag were grown in T225 flasks, in a 5% CO2 humidified incubator to about 80% confluence. Media composition consisted of Dulbecco's Modified Eagle Medium (high glucose), 10% fetal bovine serum ([…]), 100 units/[…] Penicillin, 100 microg/mL Streptomycin and 250 microg/mL Geneticine.
1. Plate-out HEK293-human P2X7 cells (40 microL medium containing 10,000 cells per well) into poly-D-lysine coated 384-well plates (Corning) at 24 h prior to assay.
2. Incubate at 37° C. in 5% CO2.
3. Incubate the plate at 37° C. in 5% CO2 for 1 h.
5. Test compounds were prepared at 100× the test concentration in DMSO by serial dilution with Biomek-FX liquid handling instrument. 33× diluted compound solutions in assay buffer were prepared in intermediate compound plate with Biomek-NX liquid handling instrument. A further 3× dilution occurred in below steps 6 and 7.
6. Add 20 microL of 33× diluted compound solutions into each well and leave the plate for 10 min under the dark at room temperature.
7. Measure activity by FDSS as follows: • Set the assay plate on the stacker of FDSS. • Start the detection of fluorescence intensity at 540 nm by 480 nm exicitation. • After 30 seconds, add 20 microL of assay buffer containing 240 microM BzATP (final concentration 80 microM).
IC50 values for compounds of the present invention were determined from 7-point dose-response studies. Curves were generated using the average of duplicate wells for each data point. Finally, the IC50 values are calculated with the best-fit dose curve determined by XLfit (ID Business Solutions Ltd.).

The IC50 is the point on the concentration scale where inhibition reaches its midpoint. A higher IC50 goes with weaker potency in that assay.

As to `O=C(NCc1ccc(Cl)cc1F)[C@@]1(F)CC[C@@H](O)c2ncccc21` [Example 145, (5R,8R)-N-(4-chloro-2-fluorobenzyl)-5-fluoro-8-hydroxy-5,6,7,8-tetrahydroquinoline-5-carboxamide], the IC50 is 101 to 300 nM.

The compound `O=C(NCc1ccc(Cl)cc1C(F)(F)F)[C@@]1(F)CC[C@@H](O)c2ncccc21` [Example 156, (5R,8R)-N-(4-chloro-2-(trifluoromethyl)benzyl)-5-fluoro-8-hydroxy-5,6,7,8-tetrahydroquinoline-5-carboxamide] displayed an IC50 of 101 to 300 nM.

In turn, `O=C(NCc1cccc(Cl)c1Cl)[C@@]1(F)CC[C@H](F)c2ncccc21` [Example 354, (5R,8S)-N-(2,3-dichlorobenzyl)-5.8-difluoro-5,6,7,8-tetrahydroquinaline-5-carboxamide] had an IC50 of 50 to 100 nM.

Consider `Cc1cc(Cl)cc(Cl)c1CNC(=O)C1CCC(CC(=O)O)c2ncccc21` (centres unmarked) [Example 30, 2-(5-((2,4-dichloro-6-methyl-benzyl)carbamoyl)-5,6,7,8-tetrahydroquinolin-8-yl) acetic acid], for which the IC50 was less than 50 nM.

Compound `Cc1cc(Cl)cc(Cl)c1CNC(=O)[C@H]1C[C@@H](O)c2ncccc21` [Example 98, (5S,7R)-N-(2,4-dichloro-6-methylbenzyl)-7-hy-droxy-6,7-dihydro-5H-cyclopenta[b]pyridin-5-carboxamide] registered an IC50 of 101 to 300 nM.

Turning to `Cc1cc(Cl)cc(Cl)c1CNC(=O)C1CC[C@H](O)c2ncccc21` (stereo partly drawn) [Example 64, (5R,8S)-N-(2,4-dichloro-6-methylbenzyl)-8-hydrdroxy-5,6,7,8-tetra-hydroxyquinoline-5-carboxamide], the IC50 is less than 50 nM.

`O=C(NCCOc1cccc(C(F)(F)F)c1)[C@]1(F)CC[C@H](O)c2ncccc21` [Example 219] displayed an IC50 of 301 to 1000 nM.

In turn, `O=C(NCc1cc(F)c(F)c(F)c1)[C@]1(F)CC[C@H](O)c2ncccc21` [Example 200, (5S,8S)-5-fluoro-8-hydroxy-N-(3,4,5-trifluorobenzyl)-5,6,7,8-tetrahydroquinoline-5-carboxamide] gave an IC50 of 50 to 100 nM.

Consider `O=C(NCc1cc(C(F)(F)F)ccc1Cl)[C@]1(F)CC[C@H](O)c2ncccc21` [Example 209, (5S,8S)-N-(2-chloro-5-(trifluoromethyl)benzyl)-5-fluoro-8-hydroxy-5,6,7,8-tetrahydroquinoline 5-carboxamide], for which the IC50 lay within 101 to 300 nM.

Take `O=C(NCc1c(F)cccc1F)[C@]1(F)CC[C@H](O)c2ncccc21` [Example 217, (5S,8S)-N-(2,6-difluorobenzyl)-5-fluoro-8-hydroxy-5,6,7,8-tetrahydroquinoline-5-carboxamide]: the IC50 fell in the range of 101 to 300 nM.

Compound `O=C(NCc1c(Cl)cc(Cl)cc1C(F)F)[C@@]1(F)CC[C@H](O)c2ncccc21` [Example 114] returned an IC50 of 101 to 300 nM.

For the compound `C[C@@H](NC(=O)[C@@]1(F)CC[C@@H](O)c2ncccc21)c1ccc(Cl)cc1Cl` [Example 155, (5R,8R)-N-((R)-1-(2,4-dichlorophenyl)ethyl)-5-fluoro-8-hydroxy-5,6,7,8-tetrahydroquinoline-5-carboxamide], the IC50 was in the range of 50 to 100 nM.

Turning to `O=C(NCc1cccc(C(F)(F)F)c1Cl)[C@@]1(F)CC[C@H](O)c2ncccc21` [Example 101, (5R,8S)-N-(2-chloro-3-(trifluoromethyl)benzyl)-5-fluoro-8-hydroxy-5,6,7,8-tetrahydroquinoline-5-carboxamide], the IC50 lay in the range of 101 to 300 nM.

On to `C[C@@H](NC(=O)[C@]1(F)CC[C@@H](O)c2ncccc21)c1ccc(Cl)cc1Cl` [Example 119, (5S-8R)-N-((R)-1-(2,4-dichlorophenyl)ethyl)-5-fluoro-8-hydroxy-5,6,7,8-tetrahydroquinoline-5-carboxamide], for which the IC50 was less than 50 nM.

On to `O=C(NCc1cc(F)ccc1Cl)[C@]1(F)CC[C@H](O)c2ncccc21` [Example 204, (5S,8S)-N-(2-chloro-5-fluorobenzyl)-5-fluoro-8-hydroxy-5,6,7,8-tetrahydroquinoline-5-carboxamide], for which the IC50 was in the range of 50 to 100 nM.

Regarding `O=C(NC1CC1c1ccc(Cl)cc1Cl)[C@]1(F)CC[C@@](O)(CO)c2ncccc21` (stereo partly drawn) [Example 331, (5S,8S)-N-((trans)-2-(2,4-dichlorophenyl)cyclopropyl)-5-fluoro-8-hydroxy-8-(hydroxymethyl)-5,6,7,8-tetrahydroquinoline-5-carboxamide], the half-inhibitory concentration (IC50) was 50 to 100 nM.

In the case of `O=C(NCc1cccc(C(F)(F)F)c1Cl)[C@H]1CC[C@H](O)c2ncccc21` [Example 86, (5S,8S)-N-(2-chloro-3-(trifluoromethyl)benzyl)-8-hydroxy-5,6,7,8-tetra-hydroxyqinoline-5-carboxamide], the 50% inhibitory concentration (IC50) fell in the range of 101 to 300 nM.

In turn, `O=C(NCc1c(Cl)cc(Cl)cc1CO)[C@@]1(F)CC[C@H](O)c2ncccc21` [Example 103, (5R,8S)-N-(2,4-dichloro-6-hydroxymethylbenzyl)-5-fluoro-8-hydroxy-5,6,7,8-tetrahydroquinoline-5-carboxamide] yielded an IC50 of 101 to 300 nM.

`O=C(NCc1cc(Cl)ccc1Cl)[C@]1(F)CC[C@H](O)c2ncccc21` [Example 173, (5S,8S)-N-(2,5-dichlorobenzyl)-5-fluoro-8-hydroxy-5,6,7,8-tetrahydroquinoline-5-carboxamide]: the IC50 lay in the range of 50 to 100 nM.

For the compound `O=C(NCc1ccc(F)c(F)c1F)[C@@H]1CC[C@@H](O)c2ncccc21` [Example 93, (5R,8R)-8-hydroxy-N-(2,3,4-trifluorobenzyl)-5,6,7,8-tetrahydroquinoline-5-carboxamide], the IC50 is 1000 to 3000 nM.

`O=C(NCc1ccc(F)c(F)c1F)[C@H]1CC[C@H](O)c2ncccc21` [Example 71, (5S,8S)-8-hydroxy-N-(2,3,4-trifluorobenzyl)-5,6,7,8-tetrahydroquinoline-5-carboxamide] came in with an IC50 of 301 to 1000 nM.

Regarding `O=C(NCc1ccc(Cl)cc1F)[C@H]1CC[C@H](O)c2ncccc21` [Example 77, (5S,8S)-N-(4-chloro-2-fluorobenzyl)-8-hydroxy-5,6,7,8-tetrahydroquinoline-5-carboxamide], the IC50 was in the range of 301 to 1000 nM.

In the case of `C[C@H](NC(=O)[C@]1(F)CC[C@](C)(O)c2ncccc21)c1ccc(F)cc1Cl` [Example 271, (5S,8S)-N-((S)-1-(2-chloro-4-fluorophenyl)ethyl)-5-fluoro-8-hydroxy-8-methyl-5,6,7,8-tetrahydroquinoline-5-carboxamide], the IC50 fell in the range of 301 to 1000 nM.

In turn, `Cc1cnc2c(c1)[C@](F)(C(=O)NCc1ccc(Cl)cc1Cl)CC[C@@H]2O` [Example 243, (5S,8S)-N-(2,4-dichlorobenzyl)-5-fluoro-8-hydroxy-3-methyl-5,6,7,8-tetrahydroquinoline-5-carboxamide] gave an IC50 of 301 to 1000 nM.

Compound `O=C(NCC(c1ccccc1)N1CCOCC1)[C@]1(F)CC[C@H](O)c2ncccc21` (mixture of isomers) [Example 235, (5S,8S)-5-fluoro-8-hydroxy-N-((rac)-2-morpholino-2-phenylethyl)-5,6,7,8-tetrahydroquinoline-5-carboxamide] came in with an IC50 of 1000 to 3000 nM.

Regarding `O=C(NCc1ncc(C(F)(F)F)cc1Cl)[C@]1(F)CC[C@H](O)c2ncccc21` [Example 194, (5S,8S)-N-((3-chloro-5-(trifluoromethyl)pyridin-2-yl)methyl)-5-fluoro-8-hydroxy-5,6,7,8-tetrahydroquinoline-5-carboxamide], the IC50 is less than 50 nM.

Values taken from patent US11077100B2, “Tetrahydroquinoline derivatives as P2X7 receptor antagonists” (RaQualia Pharma Inc., priority 2017, dated 2021).
